Reference: patent US20060234327A1, “Methods for identifying enzyme inhibitors and protein kinases” (priority 2003, published 2006)

Columns and labels:
ALK5 [1] = target: T1, ALK5 (Homo sapiens, UniProt P36897); assay: FSBA covalent modification and protection by competitors, followed by LC/MS; assay type: binding; conditions: for Mass Peak (relative percentage), FSBA-modified ALK5 peak: peak 35,405 Da; for Mass Peak (relative percentage), unmodified ALK5 peak: peak 34,972 Da
T1 construct: recombinantly expressed and purified kinase domain of the transforming growth factor (TGF)-β type I receptor; made in house; host or cells: baculovirus expression system
T1 sequence (P36897 205-495 limits assumed): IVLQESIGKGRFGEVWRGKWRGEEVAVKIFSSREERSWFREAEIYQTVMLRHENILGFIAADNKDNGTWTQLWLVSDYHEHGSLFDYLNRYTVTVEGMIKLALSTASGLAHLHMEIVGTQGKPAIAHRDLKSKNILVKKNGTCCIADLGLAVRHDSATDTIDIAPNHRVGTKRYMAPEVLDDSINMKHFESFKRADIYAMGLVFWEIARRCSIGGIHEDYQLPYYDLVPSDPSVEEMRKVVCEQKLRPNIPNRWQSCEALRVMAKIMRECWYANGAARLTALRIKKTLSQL

[2] = tested on: proteins in HeLa cell lysate; assay: Profiling kinases from complex proteome with biotin-FSBA, Western blot; assay type: binding
ALK4 = target: T2, ALK4 (Homo sapiens, UniProt P36896); assay: FSBA covalent modification and protection by competitors, followed by LC/MS; assay type: binding; conditions: for Mass Peak (relative percentage), unmodified ALK4 peak: peak 35,025 Da; for Mass Peak (relative percentage), FSBA-modified ALK4 peak: peak 35,459 Da
T2 sequence (P36896 24-505): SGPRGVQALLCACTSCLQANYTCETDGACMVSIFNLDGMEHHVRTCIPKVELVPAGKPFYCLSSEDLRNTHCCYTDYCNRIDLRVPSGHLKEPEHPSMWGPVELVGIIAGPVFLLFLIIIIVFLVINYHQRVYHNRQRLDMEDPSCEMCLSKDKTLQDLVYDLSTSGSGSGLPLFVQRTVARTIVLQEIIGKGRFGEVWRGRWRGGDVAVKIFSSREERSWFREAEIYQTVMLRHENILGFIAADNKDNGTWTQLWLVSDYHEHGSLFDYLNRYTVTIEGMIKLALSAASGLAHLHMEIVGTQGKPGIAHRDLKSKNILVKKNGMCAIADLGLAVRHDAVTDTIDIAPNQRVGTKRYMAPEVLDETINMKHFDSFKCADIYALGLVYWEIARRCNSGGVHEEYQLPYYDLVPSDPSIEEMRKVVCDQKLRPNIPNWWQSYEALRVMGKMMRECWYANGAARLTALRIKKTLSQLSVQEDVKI

CDK2 = CDK2 (Homo sapiens, UniProt P24941); assay: as above; assay type: binding; conditions: for Mass Peak (relative percentage), unmodified CDK2 peak: peak 33,971 Da; for Mass Peak (relative percentage), FSBA-modified CDK2 peak: peak 34,404 Da
[3] = target: T3, ALK5 (kinase domain of the TGF-β type I receptor) (Homo sapiens, UniProt P36897); assay: ^14C-FSBA affinity labeling detected by autoradiography; assay type: binding; conditions: ˜20 μM ^14C-FSBA, 1 hour
T3 construct: recombinantly expressed and purified kinase domain of the transforming growth factor (TGF)-β type I receptor; made in house; host or cells: baculovirus expression system
T3 sequence (P36897 205-495 limits assumed): T1 sequence (P36897 205-495 limits assumed)

ALK5 [4] = target: T1, ALK5; assay: Biotin-FSBA binding and competition detected by Western blot (avidin-HRP); conditions: biotin-FSBA 20 μM

**Q.** Which results are given for `CN[C@@H]1C[C@H]2O[C@@](C)([C@@H]1OC)n1c3ccccc3c3c4c(c5c6ccccc6n2c5c31)C(=O)NC4` [staurosporine]?
**A.** Effect of staurosporine on FSBA binding to ALK5 (ALK5 [1]): essentially blocked; Effect on biotin-FSBA band intensity in HeLa cell lysate ([2]; 80 μg lysate, 500 μM staurosporin 2 hours, then biotin-FSBA 20 μM 4 hours, Western blot (Example 12)): reduced intensity in selective bands; Effect on biotin-FSBA band intensity in HeLa cell lysate ([2]; staurosporin 500 μM 2 hours, then biotin-FSBA 4 hours, Western blot (Example 11)): dramatic decrease in band intensity for selected bands; Effect of staurosporine on FSBA binding to ALK4 (ALK4): essentially blocked

**Q.** How did the “Mass Peak (relative percentage), unmodified CDK2 peak” value (CDK2; FSBA 10 μM plus ATP 1 mM) turn out when `Nc1ncnc2c1ncn2[C@@H]1O[C@H](COP(=O)(O)OP(=O)(O)OP(=O)(O)O)[C@@H](O)[C@H]1O` [ATP] was run?
**A.** The value was 33,971 Da (20%).

**Q.** And the “Mass Peak (relative percentage), FSBA-modified CDK2 peak” value (CDK2; FSBA 10 μM plus ATP 1 mM)?
**A.** Its value is 34,404 Da (80%),.

**Q.** What about the “Mass Peak (relative percentage), unmodified CDK2 peak” value (CDK2; FSBA 10 μM plus ATP 5 mM) of the same molecule?
**A.** Its value is 33,971 Da (90%).

**Q.** What about the “Mass Peak (relative percentage), FSBA-modified CDK2 peak” value (CDK2; FSBA 10 μM plus ATP 5 mM) of the same molecule?
**A.** The value was 34,404 Da (10%),.

**Q.** And the “Mass Peak (relative percentage), unmodified CDK2 peak” value (CDK2; FSBA 10 μM plus ATP 10 mM)?
**A.** The value was 33,971 Da (100%).

**Q.** And the “ATP concentration necessary to block FSBA binding to CDK2” value (CDK2; FSBA 10 μM, LC/MS)?
**A.** Its value is 5 mM.

**Q.** What about the “Effect of ATP on ^14C-FSBA labeling of ALK5 by autoradiography” value ([3]; 1 mM ATP) of the same molecule?
**A.** Its value is “most of the labeling was blocked”.

**Q.** And the “Effect of ATP on ^14C-FSBA labeling of ALK5 by autoradiography” value ([3]; 10 mM ATP)?
**A.** The value was “autoradiograph did not detect ^14C-FSBA binding”.

**Q.** What about the “Mass Peak (relative percentage), FSBA-modified ALK5 peak” value (ALK5 [1]; FSBA 10 μM plus ATP 50 μM) of the same molecule?
**A.** The value was 35,405 Da (100%).

**Q.** And the “Mass Peak (relative percentage), unmodified ALK5 peak” value (ALK5 [1]; FSBA 10 μM plus ATP 100 μM)?
**A.** Its value is 34,972 Da (30%).

**Q.** What about the “Mass Peak (relative percentage), FSBA-modified ALK5 peak” value (ALK5 [1]; FSBA 10 μM plus ATP 100 μM) of the same molecule?
**A.** The value was 35,405 Da (70%),.

**Q.** And the “Mass Peak (relative percentage), unmodified ALK5 peak” value (ALK5 [1]; FSBA 10 μM plus ATP 500 μM)?
**A.** Its value is 34,972 Da (100%).

**Q.** And the “ATP concentration at which most of the covalent modification of ALK5 by FSBA was inhibited” value (ALK5 [1]; FSBA 10 μM, LC/MS)?
**A.** The value was 0.5 mM.

**Q.** And the “Mass Peak (relative percentage), unmodified ALK4 peak” value (ALK4; FSBA 10 μM plus ATP 50 μM)?
**A.** The value was 35,025 Da (5%).

**Q.** What about the “Mass Peak (relative percentage), FSBA-modified ALK4 peak” value (ALK4; FSBA 10 μM plus ATP 50 μM) of the same molecule?
**A.** The value was 35,459 Da (95%),.

**Q.** And the “Mass Peak (relative percentage), unmodified ALK4 peak” value (ALK4; FSBA 10 μM plus ATP 100 μM)?
**A.** Its value is 35,025 Da (30%).

**Q.** What about the “Mass Peak (relative percentage), FSBA-modified ALK4 peak” value (ALK4; FSBA 10 μM plus ATP 100 μM) of the same molecule?
**A.** Its value is 35,459 Da (70%),.

**Q.** And the “Mass Peak (relative percentage), unmodified ALK4 peak” value (ALK4; FSBA 10 μM plus ATP 500 μM)?
**A.** The value was 35,025 Da (100%).

**Q.** What about the “ATP concentration at which most of the covalent modification of ALK4 by FSBA was inhibited” value (ALK4; FSBA 10 μM, LC/MS) of the same molecule?
**A.** The value was 0.5 mM.

**Q.** And the “ATP concentration at which biotin-FSBA/ALK5 bands were no longer visible” value (ALK5 [4])?
**A.** The value was at least 1.0 mM.

**Q.** What does the source list for `C[C@@H](N)[C@H]1CC[C@H](C(=O)Nc2ccncc2)CC1` [Y-27632]?
**A.** Effect on FSBA labeling of ROCK1 (human ROCK1 (hROCK1)): abrogated FSBA labeling of ROCK1; Inhibition of FSBA labeling of hROCK1 (human ROCK1 (hROCK1)): inhibits hROCK1 at a 1:1 ratio; Mode of action on hROCK1 (human ROCK1 (hROCK1)): competitive inhibitor of hROCK1; Effect on FSBA binding to ALK5 (ALK5 [1]; 5 μg ALK5, FSBA 40 μM, about 2 hours, LC/MS): had no effect on FSBA binding to ALK5; Effect on FSBA labeling of ALK5 (ALK5 [1]; 10 μg ALK5, 10 μM FSBA, 3 hours at room temperature, LC/MS): did not inhibit FSBA labeling of ALK5
